Experimental data as given in patent US7129368B2, “Platinum carboxylate anticancer compounds” (Sonus Pharmaceuticals, Inc., priority 2004, dated 2006).

What was measured:
[1] = system: HCT-116 colorectal carcinoma cells; assay: ALAMAR BLUE cytotoxicity assay in HCT-116 cells; format: cell-based; conditions: HCT-116, ALAMAR BLUE, 48 hours incubation with drug
Experimental: (§1) ALAMAR BLUE Assay. […] Cytotoxicity was measured in two cell lines: a colorectal carcinoma cell line (HCT-116); and a non-small cell lung cancer cell line (NCI-H460). The marker used to quantify cell growth inhibition was ALAMAR BLUE, a non-fluorescent blue dye that is reduced to a fluorescent red product by viable cells. The amount of fluorescence is proportional to the number of viable cells.
(§2) Screening in HCT-116 cells. HCT-116 colorectal carcinoma cells (ATCC # CCL-247) were inoculated into a set of twenty-four 96-well microtiter plates containing 100 μl of McCoy's 5A media (HyClone, Logan, Utah) per well to a plating density of 7500 cells per well. After cell inoculation, the microtiter plates were incubated at 37° C., 5% CO2, 95% air and 100% relative humidity for 24 hours. After 24 hours incubation, ALAMAR BLUE reagent (Biosource, Camarillo, Calif.) was added to two plates to a final concentration of 10% v/v in each well. The plates were returned to the incubator for 4 hours and then read in a Perkin Elmer HTS 7000 Bio Assay Reader using an excitation wavelength of 535 nm and an emission wavelength of 590 nm to determine the cell population at the time of drug addition—time zero.
(§3) Two no-drug control plates were also prepared.
(§4) Following drug addition, the plates were incubated for an additional 48 hours at the conditions above.
(§5) After 48 hours of incubation the plates were removed and ALAMAR BLUE reagent was added to a final concentration of 10% v/v to each well. The plates were returned to the incubator for 4 hours and read in the Bio Assay Reader as described above.

[2] = system: NCI-H460 non-small cell lung cancer cells; assay: ALAMAR BLUE cytotoxicity assay in NCI-H460 cells; format: cell-based; conditions: H-460, ALAMAR BLUE, 48 hours incubation with drug
Experimental: as §1, §2, §3, §4, §5
Screening in NCI-H460 cells. The screening protocol above was repeated using NCI-H460 non-small cell lung cancer cells (ATCC # HTB-177) plated to a density of 10,000 cells per well in RPMI media (Mediatech, Inc., Herndon, Va.).

[3] = system: HT29 colorectal carcinoma cell line; assay: MTS cytotoxicity assay in HT29 cells; format: cell-based; conditions: 72 hours of treatment, read-out: Growth Inhibition (GI50)
Experimental: (§6) MTS Assay. […] Cytotoxicity was measured in six cell lines: two colorectal carcinoma cell lines, HT29 (ATCC # CCL-218) and HCT-116 (ATCC # CCL-247); two small cell lung cancer cell lines, NCI-H69 (ATCC # HTB-119) and NCI-H69/AR (ATCC # CRL-11351); and two ovarian cancer cell lines, A2780 (ECACC # 93112519) and A2780/DPPt (similar strain, A2780 cis, available at ECACC # 93112517). Viable cell number was measured using the MTS cell viability assay ([…] 96 AQueous One Solution Cell Proliferation Assay kit available from Promega, USA). Cell growth inhibition was quantified by measuring absorbance at 490 nm, which is directly proportional to the number of living cells in culture.
(§7) The platinum compounds were prepared as 10 mM stock solutions in water containing 5% dextrose (D5W). Cisplatin was prepared in saline. Dosing solutions were prepared by serial dilution of the stock solutions in cell culture medium to provide final concentrations of 0.006–100 μM.
(§8) All tumor lines were propagated under sterile conditions and incubated at 37° C. in HEPA-filtered CO2 tissue culture incubators with 5% CO2 and 95% humidity in colorless RPMI 1640 medium (Mediatech, Hemdon, Va.) containing 5% fetal bovine serum (complete medium). […]
(§9) Viable cell number was measured by the MTS dye conversion assay after a total of 72 hours of treatment. […] The absorbance was measured at 490 nm on a Coulter microplate reader.

[4] = system: HCT-116 colorectal carcinoma cell line; assay: MTS cytotoxicity assay in HCT-116 cells; format: cell-based; conditions: HCT-116, MTS, 72 hours of treatment; read-out: Growth Inhibition (GI50)
Experimental: as §6, §7, §8, §9

[5] = system: NCI-H69 small cell lung cancer cell line; assay: MTS cytotoxicity assay in NCI-H69 cells; format: cell-based; conditions: 72 hours of treatment, read-out: Growth Inhibition (GI50)
Experimental: as §6, §7, §8, §9

[6] = system: NCI-H69/AR small cell lung cancer cell line; assay: MTS cytotoxicity assay in NCI-H69/AR cells; format: cell-based; conditions: 72 hours of treatment, read-out: Growth Inhibition (GI50)
Experimental: as §6, §7, §8, §9

[7] = system: A2780 ovarian cancer cell line; assay: MTS cytotoxicity assay in A2780 cells; format: cell-based; conditions: 72 hours of treatment, read-out: Growth Inhibition (GI50)
Experimental: as §6, §7, §8, §9

[8] = system: A2780/DPPt ovarian cancer cell line; assay: MTS cytotoxicity assay in A2780/DPPt cells; format: cell-based; conditions: A2780/DDPT, 72 hours of treatment, read-out: Growth Inhibition (GI50)
Experimental: MTS Assay. […] Cytotoxicity was measured in six cell lines: two colorectal carcinoma cell lines, HT29 (ATCC # CCL-218) and HCT-116 (ATCC # CCL-247); two small cell lung cancer cell lines, NCI-H69 (ATCC # HTB-119) and NCI-H69/AR (ATCC # CRL-11351); and two ovarian cancer cell lines, A2780 (ECACC # 93112519) and A2780/DPPt (similar strain, A2780 cis, available at ECACC # 93112517). Viable cell number was measured using the MTS cell viability assay ([sequence] 96 AQueous One Solution Cell Proliferation Assay kit available from Promega, USA). Cell growth inhibition was quantified by measuring absorbance at 490 nm, which is directly proportional to the number of living cells in culture.

[9] = Effect of pH on CDTA-diplatinum/CDTA-monoplatinum interconversion (HPLC); format: physicochemical
Experimental: Cyclohexane-trans-1,2-diaminetetraacetic-acid-diplatinum (CDTA-diplatinum) was prepared according to Example 1. Three solutions of CDTA-diplatinum were prepared: 1 mg/ml in water (pH ˜6.5) (Solution 1); 1 mg/ml in 0.01 N NaOH (pH˜9.5) (Solution 2); and 1 mg/ml in 0.01 N HCl (pH˜2) (Solution 3).

[10] = Solution 1: 1 mg/ml in water (pH ~6.5)
[11] = Solution 2: 1 mg/ml in 0.01 N NaOH (pH ~9.5)
[12] = Solution 3: 1 mg/ml in 0.01 N HCl (pH ~2)

| Compound | GI50 [1] [µM] | GI50 [2] [µM] | GI50 [3] [µM] | GI50 [4] [µM] | GI50 [5] [µM] | GI50 [6] [µM] | GI50 [7] [µM] | GI50 [8] [µM] | percentage of species by HPLC in a solution of CDTA-diplatinum (Example 1) [9, 10] [%] | percentage of species by HPLC in a solution of CDTA-diplatinum (Example 1) [9, 11] [%] | percentage of species by HPLC in a solution of CDTA-diplatinum (Example 1) [9, 12] [%] |
| --- | --- | --- | --- | --- | --- | --- | --- | --- | --- | --- | --- |
| N.N.O=C([O-])C1(C(=O)[O-])CCC1.[Pt+2] [Carboplatin, cis-diamine[1,1-cyclobutanedicarboxylato(2-)]—O,O′-platinum (II), reference compound] | 159 | 9 | – | – | – | – | – | – | – | – | – |
| N.N.[Cl][Pt][Cl] [Cisplatin, cis-[PtCl2(NH3)2], reference compound] | 4 | 469 | – | – | – | – | – | – | – | – | – |
| cyclohexane-trans-1,2-diaminetetraacetic-acid-diplatinum [CDTA-diplatinum] | 0.55 | 0.371 | 78 | 24 | 6.69 | 8.9 | 5.45 | 49 | 54 | 1 | 2 |
| cyclohexane-trans-1,2-diaminetetraacetic-acid-monoplatinum [CDTA-monoplatinum] | 6.4 | 9.71 | 65 | 38 | 10 | 18 | 5.57 | – | 45 | 99 | 98 |
